Experimental data as given in publication PMC1925066, “Optical biosensor differentiates signaling of endogenous PAR1 and PAR2 in A431 cells” (BMC Cell Biology, 2007).
One block for each molecule: values may come before it. Where a SMILES comes first, the peptide text is derived from it.

Experiments:
EGFR in A431 cells [1] = system: EGFR in A431 cells; parameters: method as in PMID 16766609; details: blockage of EGFR tyrosine kinase activity in A431; cited from earlier work
EGFR in A431 cells [2] = assay: Interference of EGFR activation with PAR signaling, DMR signal; format: cell-based, human
Text: (§1) A431 cells express large numbers of EGF receptors. AG1478 is a potent and selective EGFR tyrosine kinase inhibitor. It is also known that cholesterol removal by mβCD triggers a ligand-independent transactivation of EGFR in A431 cells. Thus, we were interested the interference of EGFR activation with PAR signaling. The preceding stimulation with EGF had little effect on the Ca^2+ mobilization induced by trypsin (Fig. 9a) or thrombin (data not shown).
(§2) Figure 9 The effect of preceding EGF stimulation on PAR signaling. (a) The Ca^2+ mobilization. (b, c) The DMR signals. The ligands were EGF (100 nM), trypsin (100 nM), and thrombin (40 unit/ml). The cell responses with the pre-treatment with the HBSS only were also included as control.
(§3) Corning® Epic™ angular interrogation system with transverse magnetic or p-polarized TM0 mode was used for all studies. The detailed instrumental setup and assay protocols had been previously described. Briefly, all compound solutions were prepared using 1 × HBSS containing minimal amount of dimethyl sulfoxide, while the starved cells were washed and maintained with 100 μl the serum-free DMEM. The cells were then treated with 50 μl 1 × HBSS buffered solution in the absence and presence of a compound, followed by stimulation with ligand solutions. The cellular responses were monitored in real time throughout the assays.

[3] = system: endogenous PAR1 and PAR2 in A431 cells; assay: Fluo-3 Ca2+ mobilization (Ca2+ flux) assay in quiescent A431 cells; format: cell-based, human; details: for maximal [Ca^2+]i elevation: SFLLR-amide at 80 μM; for responsiveness (Ca^2+ mobilization) after pre-stimulation with thrombin: thrombin 40 unit/ml first; for Ca^2+ mobilization response after pre-stimulation with trypsin: trypsin 200 nM first, repeated stimulation separated by 6 min; for rapid and transient increase in intracellular Ca^2+: quiescent A431 cells
Method: (§4) Human epidermoid carcinoma A431 cells ([…]) were grown in Dulbecco's modified Eagle's medium (DMEM) supplemented with 10% fetal bovine serum (FBS), 4.5 g/liter glucose, 2 mM glutamine, and antibiotics. ~5 × 10^4 cells at passage 3 to 8 suspended in 200 μl the DMEM medium containing 10% FBS were placed in each well of a 96well microplate, and were cultured at 37°C under air/5% CO2 for ~2 days, followed by ~20 hr starvation through continuously culturing in the serum-free DMEM.
Cells were grown in Costar™ 96well clear cell culture microplates. After starvation, the cells were washed with 1× HBSS (1× regular Hank's balanced salt solution, 20 mM HEPES buffer, pH 7.0) in the presence of 2.5 mM probenicid, and labeled in the same buffer containing 4 μM Fluo-3 for 1 hour at room temperature. The cells were then washed twice with buffer, maintained with 100 μl 1× HBSS containing 2.5 mM probenicid. The assay was initiated by transferring 50 μl PAR agonist solution to the cell plate, and calcium signal was recorded over 6 minutes with a 6 sec interval using HTS7000 BioAssay Reader (PerkinElmer Life Science, Boston, MA). The fluorescent intensity before stimulation was recorded and used as a baseline. The percentage increase in fluorescence intensity after stimulation, relative to the baseline fluorescence, was analyzed and used directly as a measure for the increase of intracellular Ca^2+ level induced by PAR agonists.
(§5) Unless specifically mentioned, three replicates were carried out for each measurement or each compound. The standard deviation was derived from these measurements (n = 3). […] All dose-dependent responses were analyzed using non-linear regression method with the Prism software (Graph Pad).

[4] = system: endogenous PAR1 and PAR2 in A431 cells; assay: MRCAT resonant waveguide grating biosensor DMR assay in quiescent A431 cells; format: cell-based, human; details: for effect of preceding stimulation on trypsin-induced DMR signal: trypsin 200 nM; for desensitization of trypsin-treated cells (DMR signal): trypsin 200 nM first, repeated stimulation separated by ~1 hr; for Gq-type DMR signal: quiescent A431 cells, 20 μM
Method: as §4, §3, §5

[5] = system: cell surface cholesterol of A431 cells; assay: Effect of cholesterol depletion (cyclodextrin pre-treatment) on agonist-induced DMR signals; format: cell-based, human
Method: Similarly, the mβCD pre-treatment also led to a dose-dependent attenuation of the DMR signals induced by thrombin or trypsin (Fig. 7). However, there is a clear distinction between the inhibition curves of trypsin- and thrombin-induced DMR signals by mβCD. […] As expected, αCD up to 8 mM had little effect on both agonist-induced DMR responses. […] A23187 is a Ca^2+ ionophore, and is able to release stored Ca^2+ from the endoplasmic reticulum in cells.
Figure 7 Cholesterol removal attenuates the agonist-induced DMR signals. mβCD was used to deplete cell surface cholesterol. Its effect on the amplitudes of the P-DMR events induced by (a) thrombin (40 unit/ml) or (b) trypsin (200 nM) was analyzed. In comparison, the effect of αCD was also included. (c) The DMR signals of A431 cells induced by A23187 without or with the pre-treatment with 5 mM mβCD.
as §3

[6] = system: cell surface cholesterol of A431 cells; assay: Effect of cholesterol depletion (cyclodextrin pre-treatment) on agonist-induced Ca2+ mobilization; format: cell-based, human; details: for IC50: one-phase decay fit
Text: Since the physiological significance of co-expression of two receptors in A431 is unclear, we were interested in the possibility of differentiated regulation of PAR1 and PAR2 signaling. A common mechanism for the cell to regulate and differentiate receptor signaling is compartmentalization of receptors and/or their signaling components. Amassing evidences support the hypothesis that there are many cholesterol-rich microdomains at the cell surface membrane, although their characteristics are still under extensive investigations. Such microdomain is believed to enable the sorting and segregation of receptors and their signaling cascades, thus regulating cell signaling. Methyl-β-cyclodextrin (mβCD) has been widely used to extract cell surface choleterol primarily through effluxing, thus disrupting these cholesterol-rich microdomains. Thus, we examined the effect of cholesterol depletion by mβCD on both Ca^2+ mobilization and DMR responses induced by thrombin and trypsin. […] Both dose-dependent inhibition curves appeared fit well with a one-phase decay non-linear regression, leading to an almost identical half-concentration (C1/2 of ~1.5 mM) of mβCD. This is consistent with the fact that mβCD results in rapid effluxing of cell membrane cholesterol molecules; and the amount of remain cell surface cholesterol depends on the concentration of mβCD in solution [27]. The higher concentration mβCD is, the less cholesterol is retained at the cell surface membrane. […]
(§6) Cells were grown in Costar™ 96well clear cell culture microplates. […] The assay was initiated by transferring 50 μl PAR agonist solution to the cell plate, and calcium signal was recorded over 6 minutes with a 6 sec interval using HTS7000 BioAssay Reader (PerkinElmer Life Science, Boston, MA). The fluorescent intensity before stimulation was recorded and used as a baseline. The percentage increase in fluorescence intensity after stimulation, relative to the baseline fluorescence, was analyzed and used directly as a measure for the increase of intracellular Ca^2+ level induced by PAR agonists.

A431 cells = assay: Cell toxicity / cell detachment from the biosensor surface; format: cell-based, human; details: high doses (>8 mM)
EGFR in A431 cells [7] = assay: Interference of EGFR activation with PAR signaling, Ca2+ mobilization; format: cell-based, human; details: EGF 100 nM; trypsin 100 nM, thrombin 40 unit/ml
Text: as §1, §2, §6

[8] = 100 nM, trypsin 100 nM, thrombin 40 unit/ml

Molecule: COc1cc2ncnc(Nc3cccc(Cl)c3)c2cc1OC [AG1478]
- effect on trypsin-induced DMR signal (EGFR in A431 cells [1]): partially attenuated
- effect of pre-treatment on inhibition of trypsin-induced DMR by cholesterol depletion (EGFR in A431 cells [2]; data not shown): did not counter the inhibitory effect

- EC50 ([3]; A431 cells, read-out: EC50 (n = 3) Ca^2+ flux assay): 3.8 ± 0.4 µM
- EC50 ([4]; A431 cells, amplitude of N-DMR event, read-out: EC50 (n = 3) N-DMR): 9.1 ± 2.2 µM
- EC50 ([4]; A431 cells, amplitude of P-DMR event, read-out: EC50 (n = 3) P-DMR): 6.1 ± 1 µM
Molecule: CC[C@H](C)[C@H](NC(=O)[C@H](CC(C)C)NC(=O)[C@@H](N)CO)C(=O)NCC(=O)N[C@@H](CCCCN)C(=O)N[C@H](C(N)=O)C(C)C [SLIGKV-amide] (H-SLIGKV-NH2; N-terminus assumed)
- maximal [Ca^2+]i elevation ([3]; A431 cells): 52 ± 6%
- effect of preceding stimulation on trypsin-induced Ca^2+ mobilization ([3]; peptide 20 μM first, then trypsin 200 nM, separated by 6 min): partially attenuated
- responsiveness (Ca^2+ mobilization) after pre-stimulation with thrombin ([3]; separated by 6 min): not
- Ca^2+ mobilization response after pre-stimulation with trypsin [3]: completely blocked
- DMR signals in cells with or without pre-stimulation with thrombin ([4]; separated by ~1 hr): almost identical DMR signals
- effect of preceding stimulation on trypsin-induced DMR signal ([4]; separated by ~1 hr): only partially attenuated
- desensitization of trypsin-treated cells (DMR signal) [4]: only partially

Molecule: OC[C@H]1O[C@@H]2O[C@H]3[C@H](O)[C@@H](O)[C@@H](O[C@H]4[C@H](O)[C@@H](O)[C@@H](O[C@H]5[C@H](O)[C@@H](O)[C@@H](O[C@H]6[C@H](O)[C@@H](O)[C@@H](O[C@H]7[C@H](O)[C@@H](O)[C@@H](O[C@H]1[C@H](O)[C@H]2O)O[C@@H]7CO)O[C@@H]6CO)O[C@@H]5CO)O[C@@H]4CO)O[C@@H]3CO [αCD, α-cyclodextrin]
- effect on both agonist-induced (thrombin, trypsin) DMR responses ([5]; up to 8 mM): little effect
- effect on trypsin and thrombin-induced Ca^2+ mobilization responses ([6]; up to 8 mM): little effect
- cell toxicity and cell detachment from the biosensor surface (A431 cells): detectable cell toxicity

Molecule: GYPGQV
- rapid and transient increase in intracellular Ca^2+ [3]: only PAR1 and PAR2 agonists resulted in
- Gq-type DMR signal [4]: only PAR1 and PAR2 agonists resulted in

Molecule: Methyl-β-cyclodextrin [mβCD]
- effect on DMR signal induced by 5 μM A23187 ([5]; pre-treatment at 5 mM): little effect
- IC50 ([5]; thrombin 40 unit/ml, P-DMR amplitude, read-out: C1/2 for suppression of thrombin-induced DMR): 1200 ± 300 µM
- IC50 ([5]; trypsin 200 nM, 2-phase decay, read-out: C1/2 for inhibition of trypsin-mediated DMR, first phase): 5000 ± 1000 µM
- IC50 ([5]; trypsin 200 nM, 2-phase decay, read-out: C1/2 for inhibition of trypsin-mediated DMR, second phase): 11000 ± 2000 µM
- IC50 ([6]; thrombin 40 unit/ml, read-out: half-concentration (C1/2) for suppression of thrombin-induced Ca^2+ mobilization): ~1500 µM
- IC50 ([6]; trypsin 200 nM, read-out: half-concentration (C1/2) for suppression of trypsin-induced Ca^2+ mobilization): ~1500 µM

Molecule: TFRGAP
- rapid and transient increase in intracellular Ca^2+ [3]: only PAR1 and PAR2 agonists resulted in
- Gq-type DMR signal [4]: only PAR1 and PAR2 agonists resulted in

- EC50 (n = 3) Ca^2+ flux assay ([3]; A431 cells): 6.0 ± 1.0 unit/ml
- EC50 (n = 3) N-DMR ([4]; A431 cells, amplitude of N-DMR event): 11.0 ± 1.9 unit/ml
- EC50 (n = 3) P-DMR ([4]; A431 cells, amplitude of P-DMR event): 9.6 ± 2.0 unit/ml
Molecule: Thrombin: serine protease, PAR1 agonist, purchased from Sigma
- maximal [Ca^2+]i elevation ([3]; A431 cells): 48 ± 4%
- responsiveness (Ca^2+ mobilization) after pre-stimulation with thrombin ([3]; separated by 6 min): completely inhibited
- Ca^2+ mobilization response after pre-stimulation with trypsin [3]: completely blocked
- effect of preceding stimulation on trypsin-induced DMR signal ([4]; separated by ~1 hr): only partially attenuated
- desensitization of trypsin-treated cells (DMR signal) [4]: completely desensitized

Molecule: bradykinin (RPPGFSPFR; Bradykinin; UniProt P01042 381-389, looked up) [agonist for bradykinin B2 receptor]
- Ca^2+ mobilization response after pre-stimulation with PAR agonists ([3]; bradykinin 100 nM, separated by 6 min): neither of PAR agonists examined had any effect
- effect of preceding stimulation on DMR signal induced by any PAR agonist ([4]; bradykinin 100 nM first, separated by ~1 hr): no obvious effect
- desensitization of trypsin-treated cells (DMR signal) [4]: not

Molecule: epidermal growth factor (NSDSECPLSHDGYCLHDGVCMYIEALDKYACNCVVGYIGERCQYRDLKWWELR; UniProt P01133 971-1023, looked up) [EGF, epidermal growth factor, purchased from Sigma]
- effect on N-DMR event induced by either trypsin or thrombin (EGFR in A431 cells [2]; [8]): almost completely inhibited
- effect on P-DMR event induced by either trypsin or thrombin (EGFR in A431 cells [2]; [8]): only slightly attenuated
- effect of preceding stimulation on Ca^2+ mobilization induced by trypsin or thrombin (EGFR in A431 cells [7]): little effect
